Data published in patent US8674113B2, “Compounds” (Boehringer Ingelheim International GmbH, priority 2010, dated 2014).
Like-named read-outs stand apart in the source and are kept apart here.

Tests used:
mPGES-1 in A549 cells = mPGES-1 in A549 cells (Homo sapiens (Human), UniProt O14684); experiment: A549 cell-based assay (PGE2 formation, 50% human serum)
Method: Although the enzymatic assay is a high throughput assay the disadvantage is that it uses a recombinant protein which is not in its natural environment. Accordingly a cellular assay was established in which a cell line of human origin (A549) expressing the mPGES-1 protein was used. In addition in order to mimic the situation in humans in which compounds can be bound to plasma proteins 50% human serum is added in the assay.
A549 cells (ATCC: CCL-185) are grown to about 90% confluence in F-12K Nutrient Mixture (Kaighn's Mod. Gibco) containing 10% FBS in a humified incubator at 37° C. and 5% CO2. Cells were detached using Trypsin-EDTA. A549 cells were seeded in a 384-well collagene plate at a density of 7000 cells/well (50 μl) in F-12 medium containing 1% Penicillin-Streptomycin and 50% human serum. The cells were allowed to attach for 3-4 h. After that the cells were incubated for 20-24 h in F-12k medium supplemented with 50% human serum, 1% Penicillin-Streptomycin and containing IL-1β at a final concentration of 5 ng/ml as well as 10 nM arachidonic acid in the presence of a vehicle or a test compound. The total volume is 100 μl.
Concentrations of PGE2 in the cell free medium (10 μl) were measured using a commercially available HTRF kit from Cisbio (as described above). The PGE2 formation in the absence of test compound was taken as 100%.
IC50 values were derived from at 6-8 point titrations using conventional software.

[1] = biological target: recombinant human mPGES-1 (Homo sapiens (Human), UniProt O14684); experiment: mPGES-1 enzyme assay (HTRF detection of PGE2); type: biochemical
Method: Microsomes from Rosetta E. coli bacteria expressing recombinant human mPGES-1 can be derived as described below:
Inoculate 5 ml LB with Ampicilin (50 μg/ml) and Chloramphenicol (34 μg/ml) with bacteria from freeze culture. Incubate 8 h at 37° C. with 200 rpm. Thereafter, inoculate 500-1000 ml LB containing Amp and Chloro with the 5 ml on culture and grow to OD640 of 0.8-1.0. Chill the culture to +4° C. before induction. Induce the culture with IPTG at a final concentration of 400 μM. Express the protein at room temp 18-23° C. with 200 rpm shaking over night.
The following steps can be performed on the following day: • 1. Spin down the cells in 250 ml centrifuge flasks for 15 min at 7000 rpm (Beckmann Coulte Avanti J-E centrifuge) • 2. Dissolve the pellet from 250 ml culture in 12.5 ml homogenization buffer • 3. (15 mM Tris-HCL pH8, 1 mM EDTA pH8, […], 2.5 mM GSH, 1 Tablet Protease inhibitor per 50 ml buffer) • 4. Disintegrate the cells by sonication, 5×10 seconds at 48% amplitude of a 750 W sonifier • 5. Add 2.5 ml MgCl2 (100 mM) and DNase 12.5 μl (0.8 mg/ml) and incubate on ice for 30 min • 6. Spin down the bacteria debris and save the supernatant, 7000 rpm for 15 min • 7. Isolate the protein containing membranes in the supernatant by ultracentrifugation 120000×g for 2 hour at 4° C. (Sorvall T880 rotor). • 8. Discard the supernatant and dissolve the pellet in 20 mM Potassium phosphate buffer pH7.4 (KH2PO4 and K2HPO4) buffer by sonication (5×10 s, 30% of a 50 W sonifier) and aliquot the enzyme and store aliquots at −80° C.
Before each experiment is performed an aliquot of the enzyme is thawed and it can then be dissolved in 0.1 M Potassium phosphate buffer pH7.4 (KH2PO4 and K2HPO4) buffer containing 2.5 mM GSH.
The aim of this assay is to determine the affinity of a test compound for the mPGES-1 enzyme.
47 μl of recombinant human mPGES-1 (˜0.5 μg protein/well) containing microsomal suspension in a buffer containing GSH, (2.5 mmol/L L-Glutathione reduced, dissolved in 0.1 mol/L Phosphat Buffer pH 7.4) is dispensed in a 384-well plate and thereafter 1 μl of the test compound(s) is/are added and incubated for 25 minutes at room temperature. The enzyme reaction is started by the addition of 2 ul PGH2 (final conc 2 μM) disolved in water-free Diglyme. After 60 seconds the reaction is terminated by addition of a stop solution containing FeCl2 (10 μL 0.074 mol/l FeCl2). The samples are diluted between 1:25 in PBS (Phosphate Buffered Saline). 10 μl of the diluted samples are transferred to 384-well low volume plate. In order to quantify the amount of PGE2 that has been formed, a homogenous time resolved fluorescent (HTRF) detecting of PGE2 has been performed using a commercially available kit from Cisbio according to the manufactures recommendation. This HTRF-based assay has been described in detail (see: Goedken et al., J Biomol Screen, 2008, 13(7), 619-625). Briefly, the diluted samples are mixed with 5 μl PGE2-d2 conjugate and 5 μl anti-PGE2 cryptate conjugate. After an incubation period of the plates over night, the fluorescence is measured by the use of an appropriate microplate reader.
The fluorescence of Europium cryptate (maxex=307 nm, maxem=620 nm) and d2-PGE2 (maxex=620 nm, maxem=665 nm) are measured.
The extent of the specific HTRF is measured as a ratio of the emission intensity at 665 nm vs. that at 620 nm at an excitation puts of 320 nm. The quantification plate contains also wells with different concentrations of PGE2 as calibration curve for the calculation of the PGE2 concentrations from the HTRF ratio values.
From all mPGES enzyme assay the background is subtracted and the IC50 is calculated over a nonlinear regression with conventional software.

[2] = IL-1β 5 ng/ml, 10 nM arachidonic acid, 20-24 h, read-out: mPGES-1 inhibitory effect IC50 in the cell assay
[3] = recombinant human mPGES-1 microsomes, PGH2 2 μM, 60 seconds, read-out: mPGES-1 inhibitory effect IC50 in the enzyme assay
[4] = Table C comparison of selected benzimidazoles, read-out: Cell IC50
[5] = Table C comparison of selected benzimidazoles, read-out: Enzym IC50

Chain of recombinant human mPGES-1 (O14684 whole entry): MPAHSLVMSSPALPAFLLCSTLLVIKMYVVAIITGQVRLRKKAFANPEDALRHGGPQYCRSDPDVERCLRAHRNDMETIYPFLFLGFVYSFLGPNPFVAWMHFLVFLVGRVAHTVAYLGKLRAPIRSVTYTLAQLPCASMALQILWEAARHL
Chain of mPGES-1 in A549 cells (O14684 whole entry): as above

SMILES	IC50 (mPGES-1 in A549 cells; [2])	IC50 [1, 3]	IC50 (mPGES-1 in A549 cells; [4])	IC50 [1, 5]
Cn1c(Nc2c(Cl)ccc(CNC(=O)C(C)(C)C)c2Cl)nc2cc(C(=O)Nc3ccc(F)c(Cl)c3)c(N3CCC(F)CC3)cc21 [Example 1, N-(4-Fluoro-3-chloro-phenyl)-2-{2,6-dichloro-3-[(2,2-dimethyl-propionylamino)-methyl]-phenylamino}-6-(4-fluoro-piperidinyl)-1-methyl-1H-benzimidazole-5-carboxylic acid amide]	1 nM	2 nM		
CN(CC(F)F)c1cc2c(cc1C(=O)Nc1ccc(F)c(Cl)c1)nc(Nc1c(Cl)ccc(CNC(=O)C(C)(C)C)c1Cl)n2C [Example 2, N-(4-Fluoro-3-chloro-phenyl)-2-{2,6-dichloro-3-[(2,2-dimethyl-propionylamino)-methyl]-phenylamino}-6-[N-methyl-N-(2,2-difluoroethyl)-amino]-1-methyl-1H-benzimidazole-5-carboxylic acid amide]	< 1 nM	2 nM	< 1 nM	2 nM
Cn1c(Nc2c(Cl)ccc(CNC(=O)C(C)(C)C)c2Cl)nc2cc(C(=O)N[C@H]3CC[C@H](C(F)(F)F)CC3)c(NC3CC(F)(F)C3)cc21 [Example 4, N-(trans-4-Trifluoromethyl-cyclohexyl)-2-{2,6-dichloro-3-[(2,2-dimethyl-propionylamino)-methyl]-phenylamino}-6-[3,3-difluoro-cyclobutylamino]-1-methyl-1H-benzimidazole-5-carboxylic acid amide]	20 nM	5 nM		
CC(C)(C)C(=O)NCc1ccc(F)c(Nc2nc3cc(C(=O)N[C@H]4CC[C@H](C(F)(F)F)CC4)c(N4CCC(F)CC4)cc3[nH]2)c1F [Example 5, N-(trans-4-Trifluoromethyl-cyclohexyl)-2-{2,6-difluoro-3[(2,2-dimethyl-propionylamino)-methyl]-phenylamino}-6-[4-fluoro-piperidinyl]-1H-benzimidazole-5-carboxylic acid amide]	39 nM	2 nM		
Cn1c(Nc2c(Cl)ccc(CNC(=O)C(C)(C)C)c2Cl)nc2cc(C(=O)NCC(F)(F)F)c(N3CCC(F)CC3)cc21 [Example 10]	1 nM	2 nM		
CC(C)(C)C(=O)NCc1ccc(Cl)c(Nc2nc3cc(C(=O)NCC(F)(F)F)c(N4CCC(F)CC4)cc3[nH]2)c1Cl [Example 11]	3 nM	3 nM		
Cn1c(Nc2c(F)ccc(CNC(=O)C(C)(C)C)c2F)nc2cc(C(=O)N[C@H]3CC[C@H](C(F)(F)F)CC3)c(N3CCC(F)CC3)cc21 [Example 12]	3 nM	3 nM		
Cn1c(Nc2c(Cl)ccc(CNC(=O)C(C)(C)C)c2Cl)nc2cc(C(=O)NC3CC(F)(F)C3)c(N3CCC(C(F)(F)F)CC3)cc21 [Example 14]	< 1 nM	1 nM		
Cn1c(Nc2c(Cl)ccc(CNC(=O)C(C)(C)C)c2Cl)nc2cc(C(=O)Nc3ccc(F)c(Cl)c3)c(NC3CC(F)(F)C3)cc21 [Example 15]	23 nM	4 nM		
Cn1c(Nc2c(Cl)ccc(CNC(=O)C(C)(C)C)c2Cl)nc2cc(C(=O)Nc3ccc(F)c(Cl)c3)c(NCC(F)F)cc21 [Example 17]	6 nM	3 nM	6 nM	3 nM
Cn1c(Nc2c(Cl)ccc(CNC(=O)C(C)(C)C)c2Cl)nc2cc(C(=O)N[C@H]3CC[C@H](C(F)(F)F)CC3)c(N3CC4CCC3C4)cc21 (stereo partly shown) [Example 127]		2 nM		
CC(C)(O)Cn1c(Nc2c(Cl)ccc(CNC(=O)C(C)(C)C)c2Cl)nc2cc(C(=O)N[C@H]3CC[C@H](C(F)(F)F)CC3)c(N3CCOCC3)cc21 [Example 168]		3 nM		
Cn1c(Nc2c(Cl)ccc(CNC(=O)c3cn[nH]c3)c2Cl)nc2cc(C(=O)N[C@H]3CC[C@H](C(F)(F)F)CC3)c(N3CC4CC4C3)cc21 (stereo partly shown) [Example 221]	53 nM			
Cc1noc(N)c1C(=O)NCc1ccc(Cl)c(Nc2nc3cc(C(=O)N[C@H]4CC[C@H](C(F)(F)F)CC4)c(N4CC5CC5C4)cc3n2C)c1Cl (stereo partly shown) [Example 222]	100 nM			
Cc1cc(C(=O)NCc2ccc(Cl)c(Nc3nc4cc(C(=O)N[C@H]5CC[C@H](C(F)(F)F)CC5)c(N5CC6CC6C5)cc4n3C)c2Cl)no1 (stereo partly shown) [Example 223]	12 nM			
Cc1noc(C)c1C(=O)NCc1ccc(Cl)c(Nc2nc3cc(C(=O)N[C@H]4CC[C@H](C(F)(F)F)CC4)c(N4CC5CC5C4)cc3n2C)c1Cl (stereo partly shown) [Example 224]	67 nM			
Cc1nc(N)sc1C(=O)NCc1ccc(Cl)c(Nc2nc3cc(C(=O)N[C@H]4CC[C@H](C(F)(F)F)CC4)c(N4CC5CC5C4)cc3n2C)c1Cl (stereo partly shown) [Example 225]	71 nM			
Cn1c(Nc2c(Cl)ccc(CNC(=O)c3cnc(N)s3)c2Cl)nc2cc(C(=O)N[C@H]3CC[C@H](C(F)(F)F)CC3)c(N3CC4CC4C3)cc21 (stereo partly shown) [Example 226]	98 nM			
Cc1nc(C)c(C(=O)NCc2ccc(Cl)c(Nc3nc4cc(C(=O)N[C@H]5CC[C@H](C(F)(F)F)CC5)c(N5CC6CC6C5)cc4n3C)c2Cl)s1 (stereo partly shown) [Example 227]	43 nM			
Cc1nc(C(=O)NCc2ccc(Cl)c(Nc3nc4cc(C(=O)N[C@H]5CC[C@H](C(F)(F)F)CC5)c(N5CC6CC6C5)cc4n3C)c2Cl)cs1 (stereo partly shown) [Example 228]	> 100 nM			
Cn1c(Nc2c(Cl)ccc(CNC(=O)c3csc(N)n3)c2Cl)nc2cc(C(=O)N[C@H]3CC[C@H](C(F)(F)F)CC3)c(N3CC4CC4C3)cc21 (stereo partly shown) [Example 229]	4.6 nM			
Cn1c(Nc2c(Cl)ccc(CNC(=O)c3cc[nH]n3)c2Cl)nc2cc(C(=O)N[C@H]3CC[C@H](C(F)(F)F)CC3)c(N3CC4CC4C3)cc21 (stereo partly shown) [Example 230]	40 nM			
Cn1c(Nc2c(Cl)ccc(CNC(=O)OC(C)(C)C)c2Cl)nc2cc(C(=O)NCCC(F)(F)F)c(N3CC4CC4C3)cc21 (stereo not shown) [Example 266]	23 nM			
Cn1c(Nc2c(Cl)ccc(CNC(=O)C(C)(C)C)c2Cl)nc2cc(C(=O)Nc3ccc(OC(F)(F)F)cc3)c(N3CCC(F)CC3)cc21 [Example 267]	1.7 nM			
CC(C)(C)C(=O)NCc1ccc(Cl)c(Nc2nc3cc(C(=O)Nc4ccc(OC(F)(F)F)cc4)c(N4CCOCC4)cc3n2CCC(N)=O)c1Cl [Example 268]	6.5 nM			
CC(C)(F)C(=O)NCc1ccc(Cl)c(Nc2nc3cc(C(=O)NCCC(F)(F)F)c(N4CCC(C(F)(F)F)CC4)cc3n2C(C)(C)CO)c1Cl [Example 269]	55 nM			
